Measured values from article PMC9976467, “Anti-Trypanosoma cruzi activity of Coptis rhizome extract and its constituents” (Tropical Medicine and Health, 2023).

Key:
[1] = target: T. cruzi Trypo + Ama (Luc2-Tulahuen); experiment: In vitro anti-T. cruzi (trypomastigotes and amastigotes) mixture culture luciferase assay; format: cell-based, Trypanosoma cruzi; conditions: for IC50 / inhibition at 20 µM: Trypanosoma cruzi, TULAHUEN; for IC50: trypomastigotes mixed with NMH cells, 72 h; for reduction of parasite signals (inhibition in the T. cruzi mixture culture): first screen, compounds 20 μM (Fig. 1); for inhibition at 20 µM: read-out: reduction of parasite signals (inhibition in the T. cruzi mixture culture)
Procedure: Luc2-Tulahuen trypomastigotes (3 × 10^4/well) and NMH cells (5 × 10^4/well) were mixed into a 96-well white plate. Test samples and controls were added and incubated with the cells for 72 h. NP-40 (Wako Pure Chemicals Industrial Ltd, Japan) was used as the positive control, and a solvent in which the drug was dissolved as a negative. After 72 h of incubation, 100 μl of luciferin solution containing 0.6% NP-40 (Piccagene) (Toyo Ink Group, Japan) was added. Luminescence intensity was measured by a plate reader (ARVO MX 1420) (Measurement time: 1 s).
(§1) The IC50 was calculated using the following equation: IC50=10^logA/B×50-C/D-C+logB, where A is the lowest concentration at which the percentage inhibition exceeds 50%, B is the highest concentration at which percentage inhibition is less than 50%, and C and D are the percentage inhibition of the sample at concentrations B and A, respectively.

[2] = system: T. cruzi Intracell Ama (Luc2-Tulahuen); experiment: In vitro anti-T. cruzi (intracellular amastigotes) luciferase assay in NMH cells; format: cell-based, Trypanosoma cruzi; conditions: for loss of luminescence intensity in IC50 curve, in words: NMH cells with amastigotes (Supplement Figure 2); for IC50: Trypanosoma cruzi, TULAHUEN, infected NMH cells, 72 h
Procedure: The intracellular amastigotes assay was described by Alonso-Padilla et al.. Briefly, 6 × 10^6 trypomastigotes and 3 × 10^6 host cells (NMH cells) are seeded in a 25 cm^2 flask in serum-free media (MEM + 1% newborn calf serum) to enhance the intracellular infection. After 24 h incubation, the cells were washed twice with phosphate buffered saline (PBS), then replaced by MEM + 10% newborn calf serum and incubated for another 24 h. Infected cells were detached by trypsinization. Infected host fibroblast cells (5 × 10^4/well) were seeded into a 96-well plate. Test samples and the controls were added to the mixture and incubated for 72 h. Luminescence intensity was measured by a plate reader and the Piccagene (Measurement time: 1 s).
as §1

[3] = Cytotoxicity, alamarBlue viability, NMH cells; format: cell-based, mouse; conditions: mouse
Procedure: (§2) NMH cells or HuH28 cells (1 × 10^4/well) of 100 μl aliquots were seeded on a 96-well black plate. Test samples were added and incubated for 72 h. NP-40 was added as a positive control (100% cytotoxicity) and a solvent in which the samples were dissolved as a negative control (0% cytotoxicity). Then 10 μl of alamarBlue reagent (10%, Funakoshi Co., Tokyo, Japan) for mitochondria staining was added and incubated for another 4 h. The fluorescence intensity (544 nm/590 nm) was measured with a plate reader (measurement time: 0.1 s).
as §1, with “concentration required to reduce cell viability by 50% (CC50)” for “IC50”, “CC50=10^logA/B×50-C/D-C+logB,” for “IC50=10^logA/B×50-C/D-C+logB,”, “cell viability” for “percentage inhibition”

[4] = Cytotoxicity, alamarBlue viability, HuH28 cells; format: cell-based; conditions: human
Procedure: as §2
as §1, with “concentration required to reduce cell viability by 50% (CC50)” for “IC50”, “CC50=10^logA/B×50-C/D-C+logB,” for “IC50=10^logA/B×50-C/D-C+logB,”, “cell viability” for “percentage inhibition”

[5] = system: T. cruzi Epi (Luc2-Tulahuen epimastigotes); experiment: In vitro assay for anti-epimastigote form of T. cruzi activity (luciferase); format: cell-based, Trypanosoma cruzi; conditions: for IC50: Trypanosoma cruzi, TULAHUEN, epimastigotes, 72 h
Procedure: Luc2-Tulahuen epimastigotes (2 × 10^5/well) were dispensed into 96-well plate. After 72 h incubation, luminescence intensity was measured by adding lysis buffer with luciferin as substrate (PicaGene Luminescence Kit, Fuji Film Wako chemicals, Japan) (Measurement time: 1 s).
as §1

[6] = system: NMH cells (newborn mouse heart fibroblast cells); experiment: Cytotoxicity, alamarBlue viability, NMH cells; format: cell-based
Procedure: as §2
as §1, with “concentration required to reduce cell viability by 50% (CC50)” for “IC50”, “CC50=10^logA/B×50-C/D-C+logB,” for “IC50=10^logA/B×50-C/D-C+logB,”, “cell viability” for “percentage inhibition”

[7] = system: T. cruzi (Luc2-Tulahuen trypomastigotes); experiment: Murine acute infection model with live bioluminescence imaging; format: in vivo, BALB/c mice; conditions: for luminescence intensity / parasiticidal activity compared with benznidazole group: 30 mg/kg bid i.p. vs benznidazole 100 mg/kg p.o., day 4 to 8
Procedure: Mice were housed and maintained in Nagasaki University Biomedical Research Center (12 h light/dark cycle). Female BALB/c mice from 6 to 10 weeks old (20–25 g) were used in all the experiments. Mice were obtained as wild type from SLC (Japan). In standard experiments, 5 × 10^3 in vitro tissue culture-derived trypomastigotes (TCTs) was intra-peritoneally (i.p.) inoculated into mouse. The mice were handled according to the international guidelines and institutional guideline of Nagasaki University for the use and maintenance of experimental animals. Ethical approval for this study was obtained from the institutional ethical review board, Nagasaki University (approval number R12005).
Mice were intra-peritoneally injected with 150 mg/kg d-luciferin (SYD labs, USA), then anesthetized using 2.5% (vol/vol) gaseous isoflurane in oxygen. To measure bioluminescence, mice were placed in an IVIS Lumina II system (Caliper Life Science, USA) and images were acquired 10 min after d-luciferin administration using LivingImage 4.3 (Caliper Life Sciences, USA). Exposure time was fixed as 5 min. Anesthesia was maintained throughout the imaging process through the nose cone. Whole body luminescence was determined by drawing the region of interest (ROI) and quantifying the bioluminescence expressed as total flux (photons/second; p/s). Coptisine chloride was administered intra-peritoneally (i.p.) at a dose of 30 mg/kg twice a day. Benznidazole (100 mg/kg) as a positive control and the drug solvent as a negative control were administered orally (p.o.) once a day. Drug was administered for 5 consecutive days from day 4 to 8 of infection. Measurements with IVIS Lumina II were performed at five different times: on day 3 of infection (the day before drug treatment), on day 9 of infection (the day after drug treatment was completed), on day 14, 28 and 40 of infection. To maintain fairness, different experimenters performed drug treatments and luminescence intensity measurements. At day 29, BALB/c mice were injected with cyclophosphamide (Sigma-Aldrich, USA) (200 mg/kg) as an immunosuppressant by i.p. and were followed by a maximum of 3 doses at 3 day intervals. The use of immunosuppressant like cyclophosphamide could help enhance the visibility of the infected lesions even after 100 dpi. In this animal study, treatment was given when the luminescence intensity was high. In addition, an immunosuppressant was administered when the difference in luminescence intensity among the three groups became small due to natural immunity of the mice.

[8] = system: mouse fibroblast cells (NMH) and human bile duct carcinoma cell line (HuH28); experiment: Cytotoxicity screen of Kampo library on host cells (alamarBlue); format: cell-based; conditions: compounds 20 μM (Fig. 2)
From the text: Data are presented as percent reduction in intensity, indicating cell viability. Experiments were done in triplicates

[9] = system: DHODH in Plasmodium falciparum; set-up: method as in PMID 29582555; conditions: cited from earlier work
human DHODH = system: human DHODH; set-up: method as in PMID 29582555; conditions: cited from earlier work
[10] = in vivo; cited from earlier work
[11] = NMH cells (newborn mouse heart fibroblast cells), 72 h, read-out: CC50, NMH, AlamarBlue viability
[12] = HuH28 cells (human bile duct carcinoma cell line), 72 h, read-out: CC50, HuH28, AlamarBlue viability

| SMILES | IC50 [1] | IC50 [2] | IC50 [5] | CC50 at 72 h [3] | CC50 at 72 h [4] | inhibition at 20 µM [1] | other results |
| --- | --- | --- | --- | --- | --- | --- | --- |
| c1cc2c(c3c1CC1c4cc5c(cc4CCN1C3)OCO5)OCO2 (racemic) [dl-Tetrahydro coptisine] | > 40 µM | > 40 µM | – | – | – | – | loss of luminescence intensity in IC50 curve, in words ([1]; NMH cells and trypomastigotes (Supplement Figure 1)): No loss of intensity; loss of luminescence intensity in IC50 curve, in words [2]: No loss of intensity; CC50 at 72 h [3, 11]: > 40 µM; CC50 at 72 h [4, 12]: > 100 µM |
| CC(C)=CC[C@H](O)C1=CC(=O)c2c(O)ccc(O)c2C1=O [Alkanin] | – | – | – | – | – | – | reduction of parasite signals (inhibition in the T. cruzi mixture culture) [1]: more than 80% |
| O=C(Cn1ccnc1[N+](=O)[O-])NCc1ccccc1 [Benznidazole, reference compound] | 2.78 µM | 4.91 µM | 3.78 µM | > 40 µM | > 100 µM | – | – |
| COc1ccc2cc3[n+](cc2c1OC)CCc1cc2c(cc1-3)OCO2.[Cl-] [Berberin chloride] | – | – | – | – | – | – | reduction of parasite signals (inhibition in the T. cruzi mixture culture) [1]: more than 80% |
| COc1ccc2cc3[n+](cc2c1O)CCc1cc2c(cc1-3)OCO2 [Berberrubine chloride] | 20.1 µM | 33.5 µM | – | > 40 µM | > 100 µM | – | cytotoxic effect against normal NMH cells, in words [6]: slight cytotoxic effect |
| c1c2c(cc3c1OCO3)-c1cc3ccc4c(c3c[n+]1CC2)OCO4 [Coptisine chloride] | 4.48 µM | 4.98 µM | 15.1 µM | – | – | > 80% | effectiveness against epimastigotes relative to benznidazole ([5]; from IC50 15.1 µM vs 3.78 µM): fourfold less effective; CC50 at 72 h [3, 11]: > 40 µM; CC50 at 72 h [4, 12]: > 100 µM; relapse detected on day 40 after immunosuppressant ([7]; 30 mg/kg bid i.p. day 4 to 8, compared with benznidazole 100 mg/kg p.o.): smaller than that in the benznidazole treatment group; luminescence intensity after immune suppression treatment compared with control group ([7]; 30 mg/kg bid i.p. day 4 to 8, day 40, after cyclophosphamide): significantly reduced; luminescence intensity / parasiticidal activity compared with benznidazole group ([7]; listed as coptisine): equivalent parasiticidal activity; luminescence intensity / parasiticidal activity compared with benznidazole group ([7]; listed as coptisine chloride): slightly higher than that of the benznidazole group; luminescence intensity of treated group compared with untreated group ([7]; 30 mg/kg bid i.p., day 4 to 8 of infection, after 5-day treatment): significantly reduced; adverse events during in vivo experiment ([7]; BALB/c mice, 30 mg/kg bid i.p.): did not see any significant adverse events; cytotoxic effect on host cells, in words [8]: relatively lower cytotoxicity; inhibition of DHODH in Plasmodium falciparum, in words [9]: non-competitively inhibits; inhibitory activity against human DHODH, in words (human DHODH): weak inhibitory activity; oral bioavailability, in words [10]: low |
| COc1cc2c(cc1OC)-c1c(C)c3ccc(OC)c(OC)c3c[n+]1CC2 [Dehydrocorydaline nitrate] | 3.47 µM | 7.89 µM | 17.3 µM | > 40 µM | > 100 µM | > 80% | cytotoxic effect on host cells, in words [8]: relatively lower cytotoxicity |
| COc1cc2c(cc1OC)-c1cc3ccc4c(c3c[n+]1CC2)OCO4 [Epiberberine chloride] | > 40 µM | > 40 µM | – | > 40 µM | > 100 µM | – | loss of luminescence intensity in IC50 curve, in words [2]: No loss of intensity |
| COc1cc2c(cc1OC)-c1cc3ccc(OC)c(OC)c3c[n+]1CC2 [Palmatine chloride] | 2.66 µM | 17.4 µM | 22.3 µM | – | – | > 80% | CC50 at 72 h [3, 11]: > 40 µM; CC50 at 72 h [4, 12]: > 100 µM; cytotoxic effect on host cells, in words [8]: relatively lower cytotoxicity |
| CC(C)=CC[C@@H](O)C1=CC(=O)c2c(O)ccc(O)c2C1=O [Shikonin] | – | – | – | – | – | > 80% | – |
| C[C@H]1CC[C@@]2(OC1)O[C@H]1C[C@H]3[C@@H]4CC[C@@H]5C[C@@H](O[C@@H]6O[C@H](CO)[C@H](O)[C@H](O)[C@H]6O[C@@H]6O[C@H](CO)[C@@H](O)[C@H](O)[C@H]6O)CC[C@]5(C)[C@H]4CC[C@]3(C)[C@H]1[C@@H]2C [Timosaponin A-III] | – | – | – | – | – | > 80% | – |
